Holding throughout (test): relative viability (nuclei count vs DMSO), 5 days (fraction); higher = more cells survive
Compound in the assay “Apatinib + Alpelisib”: N#CC1(c2ccc(NC(=O)c3cccnc3NCc3ccncc3)cc2)CCCC1 [Apatinib] + Cc1nc(NC(=O)N2CCC[C@H]2C(N)=O)sc1-c1ccnc(C(C)(C)C(F)(F)F)c1 [Alpelisib] (partner 2 µM)
Summed up: (§1)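 Values are medians from duplicate plates. Each reflects relative viability, defined as the nuclei count of treated wells over that of vehicle wells. Lung cancer cell lines in 1536-well plates were pin-tool dosed one day after seeding with one drug alone or with a fixed anchor-drug dose plus five library-drug doses (not always all listed) in √10 steps, then fixed, stained and imaged at 4× after 5 days.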

Compound in the assay “Apatinib + Palbociclib”: N#CC1(c2ccc(NC(=O)c3cccnc3NCc3ccncc3)cc2)CCCC1 [Apatinib] + CC(=O)c1c(C)c2cnc(Nc3ccc(N4CCNCC4)cn3)nc2n(C2CCCC2)c1=O [Palbociclib] (partner 0.5 µM)
Summed up: as §1

Compound in the assay “Apatinib + Linsitinib”: N#CC1(c2ccc(NC(=O)c3cccnc3NCc3ccncc3)cc2)CCCC1 [Apatinib] + C[C@]1(O)C[C@@H](c2nc(-c3ccc4ccc(-c5ccccc5)nc4c3)c3c(N)nccn32)C1 [Linsitinib] (partner 1 µM)
Summed up: as §1

Compound in the assay “Apatinib + Decitabine”: N#CC1(c2ccc(NC(=O)c3cccnc3NCc3ccncc3)cc2)CCCC1 [Apatinib] + Nc1ncn([C@H]2C[C@H](O)[C@@H](CO)O2)c(=O)n1 [Decitabine] (partner 2 µM)
Summed up: as §1

NCI-H460: the relative viability with Apatinib + Alpelisib (first compound 0.08 µM) is 0.557; with Apatinib + Alpelisib (first compound 0.253 µM), 0.478; with Apatinib + Alpelisib (first compound 0.8 µM) it was 0.475; in the assay with Apatinib + Alpelisib (first compound 2.53 µM) it was 0.498; in the assay with Apatinib + Alpelisib (first compound 8 µM), 0.479; with Apatinib + Palbociclib (first compound 0.08 µM) it was 0.188. The relative viability is 0.191 in the assay with Apatinib + Palbociclib (first compound 0.253 µM); 0.103 with Apatinib + Palbociclib (first compound 0.8 µM); 0.182 with Apatinib + Palbociclib (first compound 2.53 µM); 0.137 in the assay with Apatinib + Palbociclib (first compound 8 µM); 0.841 with Apatinib + Linsitinib (first compound 0.08 µM); 0.863 with Apatinib + Linsitinib (first compound 0.253 µM). Besides, the relative viability was 0.661 with Apatinib + Linsitinib (first compound 0.8 µM); 0.737 in the assay with Apatinib + Linsitinib (first compound 2.53 µM); 0.64 with Apatinib + Linsitinib (first compound 8 µM); 0.497 in the assay with Apatinib + Decitabine (first compound 0.08 µM); 0.457 with Apatinib + Decitabine (first compound 0.253 µM); 0.43 in the assay with Apatinib + Decitabine (first compound 0.8 µM). The values for the relative viability with Apatinib + Decitabine (first compound 2.53 µM) and with Apatinib + Decitabine (first compound 8 µM) were 0.447 and 0.477, respectively.

The values are drawn from the supplement of paper PMC10307832.
